Data from patent publication US10829796B2, “Bacteria identification and antimicrobial susceptibility test” (priority 2015, dated 2020).

Key:
Assay in all cases: Antibiotic susceptibility testing (colour of media), spiked milk
Assay type in all cases: cell-based
Escherichia coli = settings: 37° C., plate configuration #3
Protocol: (§1) Tables 36 to 38 which follow show further examples of antibiotic susceptibility testing performed in accordance with the present invention. Table 36, antibiotic susceptibility testing of Staphylococcus aureus in Mueller Hinton and Tryptic Soy Broth at pre-incubation and at between 15-24 h. Tables 37 and 38, antimicrobial susceptibility testing of Streptococcus uberis and E. coli with the addition of gram negative specific antibiotic aztreonam. Tables 38 to 49 show further examples of antibiotic susceptibility testing and the outcomes are aligned with the described inventions.

Streptococcus uberis = settings: T~16 h, 37° C., bacteria samples 6d, plate configuration #3
Protocol: as §1

Staphylococcus aureus = settings: T~16 h, 37° C., plate configuration #3
Protocol: as §1

Cc1onc(-c2ccccc2Cl)c1C(=O)N[C@@H]1C(=O)N2[C@@H]1SC(C)(C)[C@@H]2C(=O)O [cloxacillin]
Colour of media in each well (Escherichia coli; T~16 h, bacteria samples 4c, Benzyl Penicillin or Cloxacillin 1 μg/ml): yellow | Colour of media in each well (Escherichia coli; T~16 h, bacteria samples 4c, Benzyl Penicillin or Cloxacillin 10 μg/ml): yellow | Colour of media in each well (Escherichia coli; T~16 h, bacteria samples 4c, Benzyl Penicillin or Cloxacillin 100 μg/ml): yellow | Colour of media in each well (Escherichia coli; T~16 h, bacteria samples 4c, Benzyl Penicillin or Cloxacillin 1,000 μg/ml): yellow | Colour of media in each well (Escherichia coli; T~16 h, bacteria samples 4c, Benzyl Penicillin or Cloxacillin 10,000 μg/ml): red | Colour of media in each well (Escherichia coli; t~16 h, bacteria samples 4e, Benzyl Penicillin or Cloxacillin 1 μg/ml): yellow | Colour of media in each well (Escherichia coli; t~16 h, bacteria samples 4e, Benzyl Penicillin or Cloxacillin 10 μg/ml): yellow | Colour of media in each well (Escherichia coli; t~16 h, bacteria samples 4e, Benzyl Penicillin or Cloxacillin 100 μg/ml): yellow | Colour of media in each well (Escherichia coli; t~16 h, bacteria samples 4e, Benzyl Penicillin or Cloxacillin 1,000 μg/ml): red | Colour of media in each well (Escherichia coli; t~16 h, bacteria samples 4e, Benzyl Penicillin or Cloxacillin 10,000 μg/ml): red | Colour of media in each well (Streptococcus uberis; Benzyl Penicillin or Cloxacillin 1 μg/ml): red | Colour of media in each well (Streptococcus uberis; Benzyl Penicillin or Cloxacillin 10 μg/ml): red | Colour of media in each well (Streptococcus uberis; Benzyl Penicillin or Cloxacillin 100 μg/ml): red | Colour of media in each well (Streptococcus uberis; Benzyl Penicillin or Cloxacillin 1,000 μg/ml): red | Colour of media in each well (Streptococcus uberis; Benzyl Penicillin or Cloxacillin 10,000 μg/ml): red | Colour of media in each well (Staphylococcus aureus; bacteria samples 5c, Benzyl Penicillin or Cloxacillin 1 μg/ml): red | Colour of media in each well (Staphylococcus aureus; bacteria samples 5c, Benzyl Penicillin or Cloxacillin 10 μg/ml): red | Colour of media in each well (Staphylococcus aureus; bacteria samples 5c, Benzyl Penicillin or Cloxacillin 100 μg/ml): red | Colour of media in each well (Staphylococcus aureus; bacteria samples 5c, Benzyl Penicillin or Cloxacillin 1,000 μg/ml): red | Colour of media in each well (Staphylococcus aureus; bacteria samples 5c, Benzyl Penicillin or Cloxacillin 10,000 μg/ml): red | Colour of media in each well (Staphylococcus aureus; bacteria samples 5e, Benzyl Penicillin or Cloxacillin 1 μg/ml): red | Colour of media in each well (Staphylococcus aureus; bacteria samples 5e, Benzyl Penicillin or Cloxacillin 10 μg/ml): red | Colour of media in each well (Staphylococcus aureus; bacteria samples 5e, Benzyl Penicillin or Cloxacillin 100 μg/ml): red | Colour of media in each well (Staphylococcus aureus; bacteria samples 5e, Benzyl Penicillin or Cloxacillin 1,000 μg/ml): red | Colour of media in each well (Staphylococcus aureus; bacteria samples 5e, Benzyl Penicillin or Cloxacillin 10,000 μg/ml): red
